Results on 1 molecule are retold here after patent US20070009377A1, “Methods for Reducing Pathogens in Biological Samples” (priority 2005, published 2007).

One data set concerns platelets. Kind of data set: In vivo radiolabeled platelet recovery after infusion into the autologous donor (clinical study one). Details: species or system human. The settings on record: after 5-day storage. The protocol: At the end of the 5-day storage period, a small aliquot of the platelets was radiolabeled with ^111Indium, according to the study site's SOP (in agreement with local and international standards for radiolabeling of human platelets). The labeling procedure was performed after formation of ^111In-tropolonate through mixing of ^111Indium chloride (Amersham) with tropolone. If the pH of the platelet samples to be labeled was>6.5, it was brought down to 6.5 to prevent irreversible aggregation of platelets during pelleting.
After washing and resuspension in plasma, a radiolabeled aliquot was infused into the autologous donor. The total radioactivity that was given to a subject in this study was less than 8 MBq. Blood samples for radioactivity counting were collected 15 minutes, 1 hour and 2-3 hours after infusion, twice (AM and PM) on day 1 post-infusion and once on days 2-6 post-infusion. After correcting for 2-hour radioelution as described by Holme, et al., (Holme S, Heaton A, Roodt J. Concurrent label method with 111In and 51Cr allows accurate evaluation of platelet viability of stored platelet concentrates. Br J Haematol 1993;84:717-23.) in vivo radiolabeled platelet recovery and survival values were calculated by the COST computer program using the multiple-hit model. […]

Data set [1] deals with apheresis platelet concentrates. Kind of data set: In vitro cell quality tests of stored platelets after riboflavin + UV light treatment (clinical study one). It is filed as cell-based, human. On the procedure: The platelet concentrate with a volume of 250 mL was transferred into a 3-litre polyolefin bag (Sengewald, Rohrdorf, Germany), followed by addition of 27 mL sterile 500 μM riboflavin so that the final concentration in the product was ca. 50 μM. The platelet products were then exposed to UV light (phosphor 265-370 nm) at either a medium dose level (7.2 J/ml) or high dose level (12.4 J/ml). Total illumination time varied from approximately 5-10 minutes with agitation at a temperature of 25-30° C. After treatment, platelet products were transferred into a citrated polyvinyl chloride ELP™ bag (Gambro BCT, Lakewood, Colo.). The treated and control PCs were stored for an additional 5 days at 20-24° C. under standard blood bank conditions. Control platelet products were prepared in the same manner as the treated counterparts except no riboflavin was added and no UV light treatment was performed.
Platelet samples were taken for lab tests at day 0, 3 and 5 of platelet storage using aseptic technique and analysis was completed within 2 hours. The in vitro cell quality tests for platelet count, swirl score, pH, pO2, pCO2, lactate and glucose were performed per standard operating procedures (SOPs) of the trial site. Hypotonic shock response (HSR) and P-selectin expression were measured as described by Ruane et al. (Ruane P H, Edrich R, Gampp D et al. Photochemical inactivation of selected viruses and bacteria in platelet concentrates using riboflavin and light. Transfusion 2004;44:877-85.)
Following Ethical Committee approval and notification of the MCC, the competent authority of South Africa, a total of 18 platelet products were collected with yields ranging from 2.9 to 3.8×10^11 platelets using standard Trima apheresis procedures. Products were treated in a polyolefin container, Sengewald bag, with UV light at either a medium UV dose (7.2 J/ml; N=5) or a high UV dose (12.4 J/ml; N=6) in the presence of 50 μM riboflavin on the day of collection. An additional seven products served as controls which were not treated with UV light. All treated and control PC products were transferred to and stored in ELP™ bags under normal blood bank conditions for 5 days post-apheresis collection. At day 0 (pre-treatment), day 3 and day 5 of storage, the samples from all PC products were measured for pH, pO2, pCO2, lactate and glucose concentrations, P-selectin, HSR and platelet swirl. […] UV treatment also accelerated an increase in P-selectin expression and decreases in HSR and swirl score during platelet storage. It appears that the severity of these changes during platelet storage were in direct proportion to the levels of UV dose applied.

Turning to `Cc1cc2nc3c(=O)[nH]c(=O)nc-3n(C[C@H](O)[C@H](O)[C@H](O)CO)c2cc1C` [riboflavin, 7,8-dimethyl-10-ribityl isoalloxazine], the “average in vivo recovery of infused platelets” value in the data set with platelets (50 μM riboflavin + high dose of UV light (12.4 J/ml)) stood at 14%; in the data set on platelets (50 μM riboflavin + medium dose of UV light (7.2 J/ml)), 30%. Also, the pO2 in data set [1] (50 μM riboflavin + high UV dose (12.4 J/ml), Day 0 (pre-treatment)) is 95 +/− 19 mmHg; in data set [1] (50 μM riboflavin + high UV dose (12.4 J/ml), Day 3) it was 83 +/− 22 mmHg; in data set [1] (50 μM riboflavin + high UV dose (12.4 J/ml), Day 5) it was 88 +/− 30 mmHg; in data set [1] (50 μM riboflavin + medium UV dose (7.2 J/ml), Day 0 (pre-treatment)), 60 +/− 15 mmHg; in data set [1] (50 μM riboflavin + medium UV dose (7.2 J/ml), Day 3), 82 +/− 24 mmHg; in data set [1] (50 μM riboflavin + medium UV dose (7.2 J/ml), Day 5), 68 +/− 17 mmHg.
